Data: patent US20130065883A1 (Centro Nacional de Investigaceiones Oncologicas (CNIO), priority 2010, published 2013)
Like-named read-outs stand apart in the source and are kept apart here.

What was measured:
[1] = system: H1299 cells overexpressing Pim1 (H1299Pim1); test: BAD S112 phosphorylation inhibition assay (In Cell ELISA); assay type: cell-based; details: Homo sapiens, NCI-H1299, inhibition of Bad-phosphorylation, read-out: Cell assay BAD_P H1299 PIM1
tumor cell lines = test: Combination assay (MTT in vitro cell proliferation, combination index); assay type: cell-based; details: for EC50: read-out: Pim Inh EC50
[2] = Metabolic stability assay; assay type: in vitro ADME; details: percentage metabolic stability in human liver microsomes
Method: The metabolic stability assay was performed in Wuxi. 1 μM, 15 min. The kinase selectivity testing was performed in ProQinase GmbH, Germany.

panel of 24 kinases = test: Kinase selectivity testing (percentage inhibition of 24 kinases at 1 μM); assay type: biochemical; details: proquinase; for % inhibiton at 1 uM AKT2: AKT2, 1 uM; for % inhibiton at 1 uM CHK1: CHK1, 1 uM; for % inhibiton at 1 uM CK1 Alpha 1: CK1 Alpha 1, 1 uM; for % inhibiton at 1 uM FGFR1: FGFR1, 1 uM; for % inhibiton at 1 uM JAK2: JAK2, 1 uM; for % inhibiton at 1 uM MEK1: MEK1, 1 uM; for % inhibiton at 1 uM PAK1: PAK1, 1 uM; for % inhibiton at 1 uM PDK1: PDK1, 1 uM; for % inhibiton at 1 uM PLK1: PLK1, 1 uM; for % inhibiton at 1 uM SGK1: SGK1, 1 uM; for % inhibiton at 1 uM RPS5 KA1: RPS5 KA1, 1 uM
PIM-1 = biological target: T1, PIM-1 (Homo sapiens, UniProt P11309); test: PIM-1 biochemical assay (ADP Hunter); details: read-out: PIM1 IC50;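 note: recombinant human PIM-1 carrying a C-terminal His tag, kinase activity quantified via ADP formed as the direct enzymatic product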
T1 construct: histidine tag (C); made in house

PIM-2 = biological target: T2, PIM-2 (Homo sapiens, UniProt Q9P1W9); test: PIM-2 biochemical assay (ADP Hunter); details: semi-quantitative class; read-out: PIM2 IC50;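 note: recombinant N-terminally His-tagged human enzyme, kinase activity quantified by detection of ADP formed as the direct reaction product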
T2 construct: histidine tag (N); made in house

PIM-3 = biological target: T3, PIM-3 (Homo sapiens, UniProt Q86V86); test: PIM-3 biochemical assay (ADP Hunter); details: read-out: PIM3 IC50;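 note: kinase activity read out as the quantity of ADP generated by the enzyme reaction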
T3 construct: purchased Millipore 14-738

FLT3 = biological target: T4, FLT3 (Homo sapiens, UniProt P36888); test: FLT3 biochemical assay (ADP Hunter);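 note: FLT3 enzymatic activity quantified through the ADP produced by the kinase reaction, detected with an ADP Hunter readout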
T4 sequence (P36888 27-993): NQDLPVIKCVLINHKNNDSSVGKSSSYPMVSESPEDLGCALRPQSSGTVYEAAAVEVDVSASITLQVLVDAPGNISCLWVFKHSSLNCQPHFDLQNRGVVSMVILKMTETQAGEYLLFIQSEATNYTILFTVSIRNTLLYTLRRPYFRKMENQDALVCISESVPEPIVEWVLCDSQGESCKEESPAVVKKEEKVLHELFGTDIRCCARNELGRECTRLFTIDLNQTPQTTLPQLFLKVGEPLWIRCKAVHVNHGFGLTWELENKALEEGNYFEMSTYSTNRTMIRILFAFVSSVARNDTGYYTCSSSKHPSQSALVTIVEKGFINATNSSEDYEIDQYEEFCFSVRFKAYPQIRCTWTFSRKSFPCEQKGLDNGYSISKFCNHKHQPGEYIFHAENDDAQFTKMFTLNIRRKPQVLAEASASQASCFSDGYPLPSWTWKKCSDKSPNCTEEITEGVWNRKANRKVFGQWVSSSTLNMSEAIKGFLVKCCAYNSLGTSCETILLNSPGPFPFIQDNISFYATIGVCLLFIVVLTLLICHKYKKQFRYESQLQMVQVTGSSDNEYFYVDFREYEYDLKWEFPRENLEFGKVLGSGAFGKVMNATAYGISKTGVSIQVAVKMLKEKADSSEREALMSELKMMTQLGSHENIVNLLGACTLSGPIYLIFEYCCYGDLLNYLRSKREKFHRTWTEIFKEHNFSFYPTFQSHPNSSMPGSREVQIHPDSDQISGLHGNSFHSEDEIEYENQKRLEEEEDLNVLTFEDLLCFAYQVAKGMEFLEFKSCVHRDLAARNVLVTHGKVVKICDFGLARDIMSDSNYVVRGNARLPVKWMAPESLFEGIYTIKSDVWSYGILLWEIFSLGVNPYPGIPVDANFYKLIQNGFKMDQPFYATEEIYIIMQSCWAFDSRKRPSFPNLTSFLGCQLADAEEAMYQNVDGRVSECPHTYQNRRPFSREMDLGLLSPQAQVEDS

[3] = actual IC50 value in parentheses

T1 sequence (P11309 whole entry): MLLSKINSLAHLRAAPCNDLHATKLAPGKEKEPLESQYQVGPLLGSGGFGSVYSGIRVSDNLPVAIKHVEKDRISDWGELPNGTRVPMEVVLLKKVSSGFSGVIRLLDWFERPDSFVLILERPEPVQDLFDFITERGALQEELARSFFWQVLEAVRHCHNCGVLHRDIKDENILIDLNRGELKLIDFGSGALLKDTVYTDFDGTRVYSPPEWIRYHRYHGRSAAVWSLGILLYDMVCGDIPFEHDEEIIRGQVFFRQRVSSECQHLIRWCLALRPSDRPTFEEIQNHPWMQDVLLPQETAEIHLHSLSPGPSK
T2 sequence (Q9P1W9 whole entry): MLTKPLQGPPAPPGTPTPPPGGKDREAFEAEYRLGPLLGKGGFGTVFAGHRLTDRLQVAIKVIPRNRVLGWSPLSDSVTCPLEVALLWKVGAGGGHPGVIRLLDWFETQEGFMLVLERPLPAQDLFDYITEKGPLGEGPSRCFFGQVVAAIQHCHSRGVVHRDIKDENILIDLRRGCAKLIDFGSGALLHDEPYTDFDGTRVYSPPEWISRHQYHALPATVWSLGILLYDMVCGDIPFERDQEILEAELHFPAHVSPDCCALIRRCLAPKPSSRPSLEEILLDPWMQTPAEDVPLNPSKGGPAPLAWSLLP

COc1cc(NCC2CCNCC2)nc2c1nnn2-c1cccc(OC(F)(F)F)c1 [2-92]
EC50 [1]: 0.136 µM | Synergy (tumor cell lines; A549, combined with GDC-0941): +++ (0.1 < CI < 0.3 (+++)) | Synergy (tumor cell lines; DU145, combined with Taxotere): ++ (0.3 < CI < 0.7 (++)) | EC50 (tumor cell lines; HTC116, colon carcinoma): 10 µM | Synergy (tumor cell lines; HTC116, combined with PD-0325901): +++ (0.1 < CI < 0.3 (+++)) | Synergy (tumor cell lines; HTC116, combined with lapatinib): +++ (0.1 < CI < 0.3 (+++)) | EC50 (tumor cell lines; Homo sapiens, SK-MEL19, SKMel19, melanoma): 1 µM | Synergy (tumor cell lines; MV4:11, combined with lapatinib): ++ (0.3 < CI < 0.7 (++)) | Synergy (tumor cell lines; MiaPaca-2, combined with Gemcitabine): + (0.7 < CI < 1.2 (+)) | Synergy (tumor cell lines; NCIH1975, combined with GDC-0941): ++ (0.3 < CI < 0.7 (++)) | Synergy (tumor cell lines; PC3, combined with GDC-0941): + (0.7 < CI < 1.2 (+)) | Synergy (tumor cell lines; SKMel19, combined with GDC-0879): +++ (0.1 < CI < 0.3 (+++)) | Synergy (tumor cell lines; SKMel19, combined with GDC-0941): ++ (0.3 < CI < 0.7 (++)) | Stability in HLM [2]: 96.65% | % inhibiton at 1 uM AKT2 (panel of 24 kinases): 0% | % inhibiton at 1 uM B_RAF V600E (panel of 24 kinases): 1% | % inhibiton at 1 uM CDK8 CYCC (panel of 24 kinases): 0% | % inhibiton at 1 uM CHK1 (panel of 24 kinases): 0% | % inhibiton at 1 uM CK1 Alpha 1 (panel of 24 kinases): 4% | % inhibiton at 1 uM DYRK 1A (panel of 24 kinases): 0% | % inhibiton at 1 uM EGF_R (panel of 24 kinases): 1% | % inhibiton at 1 uM FAK (panel of 24 kinases): 0% | % inhibiton at 1 uM FGFR1 (panel of 24 kinases): 0% | % inhibiton at 1 uM IGF1_R (panel of 24 kinases): 5% | % inhibiton at 1 uM IKK BETA (panel of 24 kinases): 0% | % inhibiton at 1 uM INS_R (panel of 24 kinases): 0% | % inhibiton at 1 uM JAK2 (panel of 24 kinases): 2% | % inhibiton at 1 uM KIT (panel of 24 kinases): 2% | % inhibiton at 1 uM MEK1 (panel of 24 kinases): 1% | % inhibiton at 1 uM MET (panel of 24 kinases): 0% | % inhibiton at 1 uM PAK1 (panel of 24 kinases): 8% | % inhibiton at 1 uM PDGFR Alpha (panel of 24 kinases): 0% | % inhibiton at 1 uM PDK1 (panel of 24 kinases): 0% | % inhibiton at 1 uM PLK1 (panel of 24 kinases): 0% | % inhibiton at 1 uM SGK1 (panel of 24 kinases): 6% | % inhibiton at 1 uM SRC (panel of 24 kinases): 8%

O[C@H]1CC[C@@H](Nc2nc3c(cc2Cl)nnn3-c2cccc(OC(F)(F)F)c2)CC1 [2-85]
IC50 (PIM-1; [3]): 0.074 µM | IC50 (PIM-1; semi-quantitative class): < 0.1 µM | IC50 (PIM-2): 0.1 to 1 µM | IC50 (PIM-3; semi-quantitative class): 0.1 to 1 µM | IC50 (FLT3; semi-quantitative class): 0.1 to 1 µM | EC50 [1]: 0.262 µM

COc1cc(NCC2CCNCC2)nc2c1nnn2-c1cccc(N(C)C)c1 [2-87]
EC50 [1]: 0.1 µM | Stability in HLM [2]: 86.25% | % inhibiton at 1 uM AKT2 (panel of 24 kinases): 4% | % inhibiton at 1 uM B_RAF V600E (panel of 24 kinases): 0% | % inhibiton at 1 uM CDK8 CYCC (panel of 24 kinases): 0% | % inhibiton at 1 uM CHK1 (panel of 24 kinases): 3% | % inhibiton at 1 uM CK1 Alpha 1 (panel of 24 kinases): 5% | % inhibiton at 1 uM DYRK 1A (panel of 24 kinases): 1% | % inhibiton at 1 uM EGF_R (panel of 24 kinases): 0% | % inhibiton at 1 uM FAK (panel of 24 kinases): 6% | % inhibiton at 1 uM FGFR1 (panel of 24 kinases): 6% | % inhibiton at 1 uM IGF1_R (panel of 24 kinases): 0% | % inhibiton at 1 uM IKK BETA (panel of 24 kinases): 0% | % inhibiton at 1 uM INS_R (panel of 24 kinases): 0% | % inhibiton at 1 uM JAK2 (panel of 24 kinases): 1% | % inhibiton at 1 uM KIT (panel of 24 kinases): 10% | % inhibiton at 1 uM MEK1 (panel of 24 kinases): 7% | % inhibiton at 1 uM MET (panel of 24 kinases): 0% | % inhibiton at 1 uM PAK1 (panel of 24 kinases): 10% | % inhibiton at 1 uM PDGFR Alpha (panel of 24 kinases): 0% | % inhibiton at 1 uM PDK1 (panel of 24 kinases): 9% | % inhibiton at 1 uM PLK1 (panel of 24 kinases): 2% | % inhibiton at 1 uM RPS5 KA1 (panel of 24 kinases): 12% | % inhibiton at 1 uM SGK1 (panel of 24 kinases): 9% | % inhibiton at 1 uM SRC (panel of 24 kinases): 0%

FC(F)(F)c1cccc(-n2nnc3cc(Cl)c(NCC4CCNCC4)nc32)c1 [2-83]
IC50 (PIM-1; [3]): 0.021 µM | IC50 (PIM-1; semi-quantitative class): < 0.1 µM | IC50 (PIM-2): > 1 µM | IC50 (PIM-3; [3]): 0.006 µM | IC50 (PIM-3; semi-quantitative class): < 0.1 µM | IC50 (FLT3; [3]): 0.094 µM | IC50 (FLT3; semi-quantitative class): < 0.1 µM | EC50 [1]: 0.458 µM | Stability in HLM [2]: 112.7% | % inhibiton at 1 uM AKT2 (panel of 24 kinases): 0% | % inhibiton at 1 uM B_RAF V600E (panel of 24 kinases): 11% | % inhibiton at 1 uM CDK8 CYCC (panel of 24 kinases): 14% | % inhibiton at 1 uM CHK1 (panel of 24 kinases): 6% | % inhibiton at 1 uM CK1 Alpha 1 (panel of 24 kinases): 3% | % inhibiton at 1 uM DYRK 1A (panel of 24 kinases): 7% | % inhibiton at 1 uM EGF_R (panel of 24 kinases): 8% | % inhibiton at 1 uM FAK (panel of 24 kinases): 16% | % inhibiton at 1 uM FGFR1 (panel of 24 kinases): 39% | % inhibiton at 1 uM IGF1_R (panel of 24 kinases): 13% | % inhibiton at 1 uM IKK BETA (panel of 24 kinases): 0% | % inhibiton at 1 uM INS_R (panel of 24 kinases): 6% | % inhibiton at 1 uM JAK2 (panel of 24 kinases): 1% | % inhibiton at 1 uM KIT (panel of 24 kinases): 26% | % inhibiton at 1 uM MEK1 (panel of 24 kinases): 2% | % inhibiton at 1 uM MET (panel of 24 kinases): 0% | % inhibiton at 1 uM PAK1 (panel of 24 kinases): 11% | % inhibiton at 1 uM PDGFR Alpha (panel of 24 kinases): 14% | % inhibiton at 1 uM PDK1 (panel of 24 kinases): 3% | % inhibiton at 1 uM PLK1 (panel of 24 kinases): 0% | % inhibiton at 1 uM RPS5 KA1 (panel of 24 kinases): 36% | % inhibiton at 1 uM SGK1 (panel of 24 kinases): 6% | % inhibiton at 1 uM SRC (panel of 24 kinases): 24%

FC(F)(F)Oc1cccc(-n2nnc3cc(Cl)c(NCC4CCNCC4)nc32)c1 [2-54]
EC50 [1]: 0.599 µM | EC50 (tumor cell lines; Homo sapiens, NCI-H23, NCIH23, non small cell lung carcinoma): 5 µM | Stability in HLM [2]: 93.95% | % inhibiton at 1 uM B_RAF V600E (panel of 24 kinases): 7% | % inhibiton at 1 uM CK1 Alpha 1 (panel of 24 kinases): 6% | % inhibiton at 1 uM DYRK 1A (panel of 24 kinases): 30% | % inhibiton at 1 uM EGF_R (panel of 24 kinases): 18% | % inhibiton at 1 uM FAK (panel of 24 kinases): 28% | % inhibiton at 1 uM FGFR1 (panel of 24 kinases): 32% | % inhibiton at 1 uM IGF1_R (panel of 24 kinases): 26% | % inhibiton at 1 uM IKK BETA (panel of 24 kinases): 17% | % inhibiton at 1 uM INS_R (panel of 24 kinases): 16% | % inhibiton at 1 uM JAK2 (panel of 24 kinases): 15% | % inhibiton at 1 uM KIT (panel of 24 kinases): 34% | % inhibiton at 1 uM MEK1 (panel of 24 kinases): 0% | % inhibiton at 1 uM MET (panel of 24 kinases): 19% | % inhibiton at 1 uM PDGFR Alpha (panel of 24 kinases): 23% | % inhibiton at 1 uM RPS5 KA1 (panel of 24 kinases): 8% | % inhibiton at 1 uM SGK1 (panel of 24 kinases): 7%
